Where “and” joins values, the source holds several entries; their conditions need not be identical. Identical values can stand only once. Entries after “also recorded” stand apart in the source; their conditions may differ. Like-named read-outs stand apart in the source and are kept apart here.
Columns and labels:
[1] = biological target: T1, human Nurr1 ligand binding domain (LBD) fused to the Gal4 DNA binding domain (Homo sapiens, UniProt P43354); assay: Hybrid Gal4-Nurr1 reporter gene assay in transiently transfected HEK293T cells; assay type: cell-based; details: for fold act. (maximum Nurr1 activation vs. DMSO (0.1 %)): purified compounds, mean±S.E.M., n≥3
Nurr1 LBD = Nurr1 LBD (Homo sapiens, UniProt P43354); assay: HTRF assay of Nurr1 LBD homodimerization; assay type: biochemical
[2] = biological target: T1, human Nurr1 ligand binding domain (LBD) fused to the Gal4 DNA binding domain; details: for comparison; cited from earlier work

T1 sequence (P43354 360-595 limits assumed): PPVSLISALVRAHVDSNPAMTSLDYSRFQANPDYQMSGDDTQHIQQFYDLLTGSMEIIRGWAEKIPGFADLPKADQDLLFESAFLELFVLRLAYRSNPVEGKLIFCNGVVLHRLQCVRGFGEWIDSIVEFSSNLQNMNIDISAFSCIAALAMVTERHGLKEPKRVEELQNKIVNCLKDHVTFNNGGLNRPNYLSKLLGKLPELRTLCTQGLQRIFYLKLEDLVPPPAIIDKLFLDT
Nurr1 LBD, sequence (P43354 360-595 limits assumed): as above

SMILES	EC50 [1] [µM]	fold act. (maximum Nurr1 activation vs. DMSO (0.1 %)) [1] [fold]	effect on Nurr1 LBD homodimerization (HTRF) (Nurr1 LBD)	fold act. (maximum Nurr1 activation vs. DMSO (0.1 %)) [2]
Clc1ccc(-c2ccc(CN3CCOc4cc(Cl)ccc43)o2)cc1 [compound 5, 7‐Chloro‐4‐((5‐(4‐chlorophenyl)furan‐2‐yl)methyl)‐3,4‐dihydro‐2H‐benzo[b][1,4]oxazine]	47 ± 13	2.0±0.2		
Clc1ccc(-c2ccc(CNc3ccnc4cc(Cl)ccc34)o2)cc1 [3 j, 7‐Chloro‐N‐((5‐(4‐chlorophenyl)furan‐2‐yl)methyl)quinolin‐4‐amine]	8 ± 1	2.5±0.1	diminished dimerization; also recorded: diminished Nurr1 homodimerization	
O=C(Nc1ccnc2cc(Cl)ccc12)c1ccc(-c2ccc(Cl)cc2)o1 [compound 4, 5‐(4‐Chlorophenyl)‐N‐(7‐chloroquinolin‐4‐yl)furan‐2‐carboxamide]	3 ± 0.1	2.0±0.1		
CCN(CC)Cc1cc(Nc2ccnc3cc(Cl)ccc23)ccc1O [AQ, amodiaquine]				3.6 fold and 3.6±0.1 fold
CCN(CC)CCCC(C)Nc1ccnc2cc(Cl)ccc12 (stereo not shown) [CQ, chloroquine]				2.0±0.1 fold
Nc1ccnc2cc(Cl)ccc12 [compound 3, 4‐Amino‐7‐chloroquinoline]				2.5 fold and 2.5±0.4 fold
